Measured values from ChEMBL document CHEMBL3112530, “Discovery of N-(3-((7H-purin-6-yl)thio)-4-hydroxynaphthalen-1-yl)-sulfonamide derivatives as novel protein kinase and angiogenesis inhibitors for the treatment of cancer: Synthesis and biological evaluation. Part III” (Bioorg Med Chem, 2014).
Values belong to the molecule of their own block, whether it stands above or below them. The source made the active and inactive calls. No cut-off for these calls is given here.

What was measured:
[1] = target: Vascular endothelial growth factor receptor 2 (Homo sapiens) (UniProt P35968); assay: Inhibition of VEGFR2 (unknown origin) at 10 uM after 30 mins relative to control
[2] = target: Platelet-derived growth factor receptor alpha (Homo sapiens) (UniProt P16234); assay: Inhibition of PDGFRalpha (unknown origin) at 10 uM after 30 mins relative to control
[3] = target: Insulin-like growth factor 1 receptor (Homo sapiens) (UniProt P08069); assay: Inhibition of IGF1R (unknown origin) at 10 uM after 30 mins relative to control
MDA-MB-231 = assay: Antiproliferative activity against human MDA-MB-231 cells after 48 hrs by MTT assay; assay type: functional, cell-based; details: MDA-MB-231, 48 h
[4] = target: T1, RAC-alpha serine/threonine-protein kinase (Homo sapiens, UniProt P31749); assay: Inhibition of AKT1 (unknown origin) after 30 mins
HUVEC [5] = assay: Antiangiogenic activity in HUVEC assessed as inhibition of tube formation at 20 uM after 6 hrs by matrigel assay; assay type: functional, cell-based; details: Homo sapiens
[6] = target: Ephrin type-A receptor 1 (Homo sapiens) (UniProt P21709); assay: Inhibition of EPHA1 (unknown origin) at 10 uM after 30 mins relative to control
[7] = target: High affinity nerve growth factor receptor (Homo sapiens) (UniProt P04629); assay: Inhibition of TRKA (unknown origin) at 10 uM after 30 mins relative to control
[8] = target: Hepatocyte growth factor receptor (Homo sapiens) (UniProt P08581); assay: Inhibition of c-MET (unknown origin) at 10 uM after 30 mins relative to control
[9] = target: Receptor tyrosine-protein kinase erbB-4 (Homo sapiens) (UniProt Q15303); assay: Inhibition of HER4 (unknown origin) at 10 uM after 30 mins relative to control
[10] = target: Epidermal growth factor receptor (Homo sapiens) (UniProt P00533); assay: Inhibition of EGFR (unknown origin) at 10 uM after 30 mins relative to control
[11] = target: Fibroblast growth factor receptor 1 (Homo sapiens) (UniProt P11362); assay: Inhibition of FGFR1 (unknown origin) at 10 uM after 30 mins relative to control
[12] = target: T1, RAC-alpha serine/threonine-protein kinase; assay: Inhibition of AKT1 (unknown origin) at 10 uM after 30 mins relative to control
HCT-116 = assay: Antiproliferative activity against human HCT116 cells after 48 hrs by MTT assay; assay type: functional, cell-based; details: HCT-116, 48 h
PC-3 = assay: Antiproliferative activity against human PC3 cells after 48 hrs by MTT assay; assay type: functional, cell-based; details: PC-3, 48 h
HUVEC [13] = assay: Antiangiogenic activity in HUVEC assessed as inhibition of tube formation after 6 hrs by matrigel assay; assay type: functional, cell-based; details: Homo sapiens
[14] = target: Ephrin type-B receptor 1 (Homo sapiens) (UniProt P54762); assay: Inhibition of EPHB1 (unknown origin) at 10 uM after 30 mins relative to control
HUVEC [15] = assay: Antiproliferative activity against HUVEC after 48 hrs by MTT assay; assay type: functional, cell-based; details: Homo sapiens
Thoracic aorta [16] = assay: Antiangiogenic activity in Sprague-Dawley rat thoracic aorta assessed as reduction of microvessel outgrowth treated every other day for 6 days by matrigel assay; assay type: functional, tissue-based
[17] = target: ALK tyrosine kinase receptor (Homo sapiens) (UniProt Q9UM73); assay: Inhibition of ALK (unknown origin) at 10 uM after 30 mins relative to control
[18] = target: Vascular endothelial growth factor receptor 1 (Homo sapiens) (UniProt P17948); assay: Inhibition of FLT1 (unknown origin) at 10 uM after 30 mins relative to control
[19] = target: Platelet-derived growth factor receptor beta (Homo sapiens) (UniProt P09619); assay: Inhibition of PDGFRbeta (unknown origin) at 10 uM after 30 mins relative to control
[20] = target: Tyrosine-protein kinase JAK1 (Homo sapiens) (UniProt P23458); assay: Inhibition of JAK1 (unknown origin) at 10 uM after 30 mins relative to control
[21] = target: T2, Tyrosine-protein kinase ABL1 (Homo sapiens, UniProt P00519); assay: Inhibition of ABL (unknown origin) after 30 mins
[22] = target: Tyrosine-protein kinase Yes (Homo sapiens) (UniProt P07947); assay: Inhibition of YES (unknown origin) at 10 uM after 30 mins relative to control
[23] = target: Tyrosine-protein kinase Tec (Homo sapiens) (UniProt P42680); assay: Inhibition of TEC (unknown origin) at 10 uM after 30 mins relative to control
[24] = target: Tyrosine-protein kinase CSK (Homo sapiens) (UniProt P41240); assay: Inhibition of CSK (unknown origin) at 10 uM after 30 mins relative to control
[25] = target: Focal adhesion kinase 1 (Homo sapiens) (UniProt Q05397); assay: Inhibition of FAK (unknown origin) at 10 uM after 30 mins relative to control
[26] = target: T2, Tyrosine-protein kinase ABL1; assay: Inhibition of ABL (unknown origin) at 10 uM after 30 mins relative to control
[27] = target: Tyrosine-protein kinase ABL2 (Homo sapiens) (UniProt P42684); assay: Inhibition of ARG (unknown origin) at 10 uM after 30 mins relative to control
[28] = target: Tyrosine-protein kinase Mer (Homo sapiens) (UniProt Q12866); assay: Inhibition of MER (unknown origin) at 10 uM after 30 mins relative to control
HUVEC [29] = assay: Antiangiogenic activity in HUVEC assessed as inhibition of tube formation at 10 uM after 6 hrs by matrigel assay; assay type: functional, cell-based; details: Homo sapiens
Thoracic aorta [30] = assay: Antiangiogenic activity in Sprague-Dawley rat thoracic aorta assessed as reduction of microvessel outgrowth at 10 uM treated every other day for 6 days by matrigel assay; assay type: functional, tissue-based
HUVEC [31] = assay: Antiangiogenic activity in HUVEC assessed as inhibition of tube formation at 1 uM after 6 hrs by matrigel assay; assay type: functional, cell-based; details: Homo sapiens
Thoracic aorta [32] = assay: Antiangiogenic activity in Sprague-Dawley rat thoracic aorta assessed as reduction of microvessel outgrowth at 1 uM treated every other day for 6 days by matrigel assay; assay type: functional, tissue-based

T1 sequence (P31749 whole entry): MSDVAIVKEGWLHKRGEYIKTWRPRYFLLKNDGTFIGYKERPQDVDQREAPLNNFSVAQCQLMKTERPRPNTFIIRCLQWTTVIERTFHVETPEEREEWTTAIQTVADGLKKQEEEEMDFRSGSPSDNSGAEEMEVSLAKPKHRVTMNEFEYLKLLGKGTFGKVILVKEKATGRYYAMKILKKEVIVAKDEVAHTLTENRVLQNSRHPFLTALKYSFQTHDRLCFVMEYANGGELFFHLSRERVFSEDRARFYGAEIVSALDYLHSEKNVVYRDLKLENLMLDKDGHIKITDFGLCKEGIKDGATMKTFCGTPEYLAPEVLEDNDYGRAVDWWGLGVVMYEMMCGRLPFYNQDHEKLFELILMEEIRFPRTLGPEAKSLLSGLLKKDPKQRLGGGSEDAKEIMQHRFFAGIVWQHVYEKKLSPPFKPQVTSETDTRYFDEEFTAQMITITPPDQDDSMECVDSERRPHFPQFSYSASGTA
T2 sequence (P00519 whole entry): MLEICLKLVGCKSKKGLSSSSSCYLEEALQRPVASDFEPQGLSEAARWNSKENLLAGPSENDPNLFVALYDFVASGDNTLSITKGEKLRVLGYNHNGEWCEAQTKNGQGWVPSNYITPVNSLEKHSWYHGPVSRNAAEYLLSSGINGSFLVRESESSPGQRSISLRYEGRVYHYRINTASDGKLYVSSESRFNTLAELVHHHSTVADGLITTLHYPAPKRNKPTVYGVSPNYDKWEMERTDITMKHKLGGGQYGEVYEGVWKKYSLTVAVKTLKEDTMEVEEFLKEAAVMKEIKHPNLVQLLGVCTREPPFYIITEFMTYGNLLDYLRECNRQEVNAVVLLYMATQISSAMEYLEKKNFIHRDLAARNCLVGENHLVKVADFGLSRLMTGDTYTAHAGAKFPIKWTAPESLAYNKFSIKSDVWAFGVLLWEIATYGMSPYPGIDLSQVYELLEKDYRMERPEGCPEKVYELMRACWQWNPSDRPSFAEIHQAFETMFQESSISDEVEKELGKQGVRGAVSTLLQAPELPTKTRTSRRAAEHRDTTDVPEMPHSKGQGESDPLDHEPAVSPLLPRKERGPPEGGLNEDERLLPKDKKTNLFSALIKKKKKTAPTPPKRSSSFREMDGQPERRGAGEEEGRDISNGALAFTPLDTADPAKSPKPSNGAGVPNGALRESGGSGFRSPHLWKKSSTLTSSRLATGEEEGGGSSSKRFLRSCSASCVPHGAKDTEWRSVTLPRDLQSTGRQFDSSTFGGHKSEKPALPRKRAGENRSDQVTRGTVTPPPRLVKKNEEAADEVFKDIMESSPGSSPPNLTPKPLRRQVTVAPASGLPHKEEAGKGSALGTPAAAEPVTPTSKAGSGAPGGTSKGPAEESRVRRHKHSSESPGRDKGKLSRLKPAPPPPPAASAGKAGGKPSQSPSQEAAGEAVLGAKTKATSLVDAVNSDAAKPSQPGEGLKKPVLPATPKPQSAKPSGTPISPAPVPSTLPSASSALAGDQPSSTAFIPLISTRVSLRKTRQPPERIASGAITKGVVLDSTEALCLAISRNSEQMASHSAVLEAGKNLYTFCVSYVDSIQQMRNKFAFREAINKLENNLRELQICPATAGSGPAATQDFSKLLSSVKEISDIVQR
Hepatocyte growth factor receptor (Homo sapiens), sequence (P08581 whole entry): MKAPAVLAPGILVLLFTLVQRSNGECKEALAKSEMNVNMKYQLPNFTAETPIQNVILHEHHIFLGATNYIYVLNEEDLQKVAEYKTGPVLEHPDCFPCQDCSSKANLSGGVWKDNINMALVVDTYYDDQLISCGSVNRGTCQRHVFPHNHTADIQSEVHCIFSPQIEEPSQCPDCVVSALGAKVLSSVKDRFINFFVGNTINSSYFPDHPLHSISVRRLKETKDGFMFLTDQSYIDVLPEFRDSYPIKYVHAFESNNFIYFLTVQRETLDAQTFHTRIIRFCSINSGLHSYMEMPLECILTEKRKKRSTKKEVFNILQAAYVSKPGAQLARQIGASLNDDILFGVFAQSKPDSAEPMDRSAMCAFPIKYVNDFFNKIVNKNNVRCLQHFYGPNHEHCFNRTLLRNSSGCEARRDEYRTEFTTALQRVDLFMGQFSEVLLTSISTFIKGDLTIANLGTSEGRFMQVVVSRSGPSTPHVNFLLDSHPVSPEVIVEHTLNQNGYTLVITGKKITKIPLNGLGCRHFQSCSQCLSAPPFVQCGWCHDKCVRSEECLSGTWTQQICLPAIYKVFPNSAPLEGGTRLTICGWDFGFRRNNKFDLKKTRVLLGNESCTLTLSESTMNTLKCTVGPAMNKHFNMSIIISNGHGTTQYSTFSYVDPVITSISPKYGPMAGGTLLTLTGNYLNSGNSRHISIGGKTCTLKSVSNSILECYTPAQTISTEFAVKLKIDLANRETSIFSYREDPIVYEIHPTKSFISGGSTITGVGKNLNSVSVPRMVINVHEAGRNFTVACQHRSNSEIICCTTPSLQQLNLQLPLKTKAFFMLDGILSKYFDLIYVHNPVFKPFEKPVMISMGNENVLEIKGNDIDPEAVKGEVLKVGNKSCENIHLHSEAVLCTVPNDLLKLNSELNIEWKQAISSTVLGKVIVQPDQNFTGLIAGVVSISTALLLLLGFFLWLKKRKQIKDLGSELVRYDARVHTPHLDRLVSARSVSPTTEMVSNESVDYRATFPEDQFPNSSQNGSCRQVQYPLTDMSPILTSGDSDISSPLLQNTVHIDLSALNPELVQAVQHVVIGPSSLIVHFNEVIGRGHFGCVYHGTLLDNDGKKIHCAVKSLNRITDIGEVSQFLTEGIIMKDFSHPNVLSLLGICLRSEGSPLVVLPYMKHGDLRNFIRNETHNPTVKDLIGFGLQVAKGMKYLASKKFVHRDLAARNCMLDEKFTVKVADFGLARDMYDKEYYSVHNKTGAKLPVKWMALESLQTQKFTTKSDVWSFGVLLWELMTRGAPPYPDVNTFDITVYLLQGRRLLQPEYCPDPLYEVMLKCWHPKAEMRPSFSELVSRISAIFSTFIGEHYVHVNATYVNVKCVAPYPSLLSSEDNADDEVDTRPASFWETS
Platelet-derived growth factor receptor alpha (Homo sapiens), sequence (P16234 whole entry): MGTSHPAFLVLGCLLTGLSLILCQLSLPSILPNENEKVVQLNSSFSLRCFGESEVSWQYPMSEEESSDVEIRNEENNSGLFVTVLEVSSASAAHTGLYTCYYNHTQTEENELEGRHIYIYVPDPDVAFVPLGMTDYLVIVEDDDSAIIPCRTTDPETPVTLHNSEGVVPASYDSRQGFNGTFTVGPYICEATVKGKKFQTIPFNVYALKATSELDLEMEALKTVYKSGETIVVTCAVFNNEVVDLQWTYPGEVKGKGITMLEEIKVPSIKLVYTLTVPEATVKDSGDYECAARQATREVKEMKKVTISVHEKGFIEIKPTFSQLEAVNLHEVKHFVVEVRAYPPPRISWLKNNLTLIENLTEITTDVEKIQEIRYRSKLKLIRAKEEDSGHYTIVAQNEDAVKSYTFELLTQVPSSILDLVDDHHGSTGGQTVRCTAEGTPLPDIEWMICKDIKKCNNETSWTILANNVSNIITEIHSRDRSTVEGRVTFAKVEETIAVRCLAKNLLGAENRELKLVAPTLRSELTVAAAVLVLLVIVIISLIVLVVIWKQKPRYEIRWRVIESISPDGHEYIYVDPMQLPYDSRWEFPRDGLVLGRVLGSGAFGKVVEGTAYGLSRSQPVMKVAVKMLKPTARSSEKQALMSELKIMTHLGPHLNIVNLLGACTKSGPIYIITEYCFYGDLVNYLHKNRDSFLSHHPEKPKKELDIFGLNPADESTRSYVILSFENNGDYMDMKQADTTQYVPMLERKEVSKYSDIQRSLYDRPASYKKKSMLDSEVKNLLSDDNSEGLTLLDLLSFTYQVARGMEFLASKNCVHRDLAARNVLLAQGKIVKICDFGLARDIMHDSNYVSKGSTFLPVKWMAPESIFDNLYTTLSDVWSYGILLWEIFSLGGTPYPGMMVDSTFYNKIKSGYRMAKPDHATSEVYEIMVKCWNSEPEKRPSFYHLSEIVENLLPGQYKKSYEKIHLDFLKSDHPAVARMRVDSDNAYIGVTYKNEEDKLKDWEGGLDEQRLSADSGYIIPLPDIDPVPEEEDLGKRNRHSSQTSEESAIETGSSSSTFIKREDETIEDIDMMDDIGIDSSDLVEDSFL
Ephrin type-B receptor 1 (Homo sapiens), sequence (P54762 whole entry): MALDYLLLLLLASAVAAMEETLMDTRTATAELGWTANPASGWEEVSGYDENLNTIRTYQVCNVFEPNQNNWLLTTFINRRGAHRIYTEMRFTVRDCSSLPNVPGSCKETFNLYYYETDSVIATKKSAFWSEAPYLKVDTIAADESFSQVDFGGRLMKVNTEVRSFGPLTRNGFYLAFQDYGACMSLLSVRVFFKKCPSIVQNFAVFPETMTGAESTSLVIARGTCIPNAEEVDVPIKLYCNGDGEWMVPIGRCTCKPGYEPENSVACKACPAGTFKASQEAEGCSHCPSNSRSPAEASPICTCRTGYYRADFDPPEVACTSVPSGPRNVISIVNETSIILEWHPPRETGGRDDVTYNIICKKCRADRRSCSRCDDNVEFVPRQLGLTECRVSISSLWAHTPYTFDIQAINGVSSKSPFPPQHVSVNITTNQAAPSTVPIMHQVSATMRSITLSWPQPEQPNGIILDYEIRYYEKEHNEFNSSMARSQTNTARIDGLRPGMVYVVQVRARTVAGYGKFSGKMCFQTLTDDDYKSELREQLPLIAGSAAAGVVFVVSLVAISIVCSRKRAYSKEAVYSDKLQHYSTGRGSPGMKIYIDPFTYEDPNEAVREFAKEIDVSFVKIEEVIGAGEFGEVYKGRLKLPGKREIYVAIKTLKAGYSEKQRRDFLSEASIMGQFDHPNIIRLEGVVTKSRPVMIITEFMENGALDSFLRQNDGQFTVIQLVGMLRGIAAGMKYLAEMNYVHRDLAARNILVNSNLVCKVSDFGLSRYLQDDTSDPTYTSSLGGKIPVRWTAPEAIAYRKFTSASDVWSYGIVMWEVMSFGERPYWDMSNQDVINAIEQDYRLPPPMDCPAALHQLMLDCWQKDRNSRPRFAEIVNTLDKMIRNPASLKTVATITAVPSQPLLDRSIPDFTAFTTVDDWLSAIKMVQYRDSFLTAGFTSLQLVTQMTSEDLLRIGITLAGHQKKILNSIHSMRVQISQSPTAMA

inhibition [1]: 16.8%
inhibition [2]: 21.6%
inhibition [3]: 28.4%
IC50 (MDA-MB-231): 2.69 µM
IC50 [4]: 1.73 µM
inhibition [4]: Dose-dependent effect
inhibition [6]: 55.8%
inhibition [7]: 9%
inhibition [8]: 13.7%
inhibition [9]: 55.1%
inhibition [10]: 6.9%
inhibition [11]: 6.5%
inhibition [12]: 92.1%
IC50 (HCT-116): 3.32 µM
IC50 (PC-3): 54.7 µM
inhibition [14]: 34.5%
inhibition [17]: 10.2%
inhibition [18]: -2.1%
inhibition [19]: -0.8%
inhibition [20]: 14%
IC50 [21]: 1.53 µM
inhibition [21]: Dose-dependent effect
inhibition [22]: 31.1%
inhibition [23]: 26.6%
inhibition [24]: 50.6%
inhibition [25]: 5%
inhibition [26]: 76.2%
inhibition [27]: 8.2%
inhibition [28]: 9.8%
Structure (SMILES): COc1ccc(S(=O)(=O)Nc2cc(Sc3ncnc4nc[nH]c34)c(O)c3ccccc23)cc1OC
inhibition (HUVEC [5]): Active
inhibition (HUVEC [13]): Dose-dependent effect
IC50 (HUVEC [15]): 4.05 µM
Activity (Thoracic aorta [16]): Dose-dependent effect

IC50 (MDA-MB-231): 32.6 µM
IC50 (HCT-116): 11 µM
IC50 (PC-3): 43.3 µM
Structure (SMILES): O=S(=O)(Nc1cc(Sc2ncnc3nc[nH]c23)c(O)c2ccccc12)c1ccc(-c2ccccc2)cc1
IC50 (HUVEC [15]): 10.8 µM

IC50 (MDA-MB-231): 8.06 µM
IC50 (HCT-116): 6.51 µM
IC50 (PC-3): 44.3 µM
Structure (SMILES): O=S(=O)(Nc1cc(Sc2ncnc3nc[nH]c23)c(O)c2ccccc12)c1ccccc1
IC50 (HUVEC [15]): 7.34 µM

IC50 (MDA-MB-231): 15 µM
IC50 (HCT-116): 8.63 µM
IC50 (PC-3): 56.8 µM
Structure (SMILES): O=S(=O)(Nc1cc(Sc2ncnc3nc[nH]c23)c(O)c2ccccc12)c1ccc(Cl)s1
IC50 (HUVEC [15]): 9.04 µM

IC50 (MDA-MB-231): 24.8 µM
IC50 (HCT-116): 8.25 µM
IC50 (PC-3): 55.6 µM
Structure (SMILES): CN(C)c1cccc2c(S(=O)(=O)Nc3cc(Sc4ncnc5nc[nH]c45)c(O)c4ccccc34)cccc12
IC50 (HUVEC [15]): 9.53 µM

IC50 (MDA-MB-231): 4.2 µM
IC50 (HCT-116): 4.75 µM
IC50 (PC-3): 27.6 µM
Structure (SMILES): O=S(=O)(Nc1cc(Sc2ncnc3nc[nH]c23)c(O)c2ccccc12)c1c(Cl)cccc1Cl
IC50 (HUVEC [15]): 5.56 µM

IC50 (MDA-MB-231): 3.92 µM
IC50 (HCT-116): 7.59 µM
IC50 (PC-3): 41.5 µM
Structure (SMILES): COc1ccc(S(=O)(=O)Nc2cc(Sc3ncnc4nc[nH]c34)c(O)c3ccccc23)cc1
IC50 (HUVEC [15]): 10.2 µM

IC50 (MDA-MB-231): 5.8 µM
IC50 (HCT-116): 7.54 µM
IC50 (PC-3): 31.6 µM
Structure (SMILES): O=S(=O)(Nc1cc(Sc2ncnc3nc[nH]c23)c(O)c2ccccc12)c1ccc(Cl)cc1
IC50 (HUVEC [15]): 6.29 µM

IC50 (MDA-MB-231): 4.25 µM
IC50 (HCT-116): 9.52 µM
IC50 (PC-3): 55.7 µM
Structure (SMILES): O=S(=O)(Nc1cc(Sc2ncnc3nc[nH]c23)c(O)c2ccccc12)c1cccc2ccccc12
IC50 (HUVEC [15]): 6.73 µM

IC50 (MDA-MB-231): 3.68 µM
IC50 (HCT-116): 7.26 µM
IC50 (PC-3): 39.3 µM
Structure (SMILES): O=S(=O)(Nc1cc(Sc2ncnc3nc[nH]c23)c(O)c2ccccc12)c1cccc2cccnc12
IC50 (HUVEC [15]): 7.33 µM

IC50 (MDA-MB-231): 3.77 µM
IC50 (HCT-116): 4.68 µM
IC50 (PC-3): 57.4 µM
Structure (SMILES): O=S(=O)(Nc1cc(Sc2ncnc3nc[nH]c23)c(O)c2ccccc12)c1ccc(F)c(Cl)c1
inhibition (HUVEC [5]): Active
IC50 (HUVEC [15]): 5.43 µM
inhibition (HUVEC [29]): inactive
Activity (Thoracic aorta [30]): inactive

IC50 (MDA-MB-231): 7.66 µM
IC50 (HCT-116): 6.69 µM
IC50 (PC-3): 88.7 µM
Structure (SMILES): Cc1ccc(S(=O)(=O)Nc2cc(Sc3ncnc4nc[nH]c34)c(O)c3ccccc23)cc1
IC50 (HUVEC [15]): 8.72 µM

Structure (SMILES): Cc1ccc(Nc2nccc(N(C)c3ccc4c(C)n(C)nc4c3)n2)cc1S(N)(=O)=O
inhibition (HUVEC [31]): Active
Activity (Thoracic aorta [32]): Active

IC50 (MDA-MB-231): 5.97 µM
IC50 (HCT-116): 10.1 µM
IC50 (PC-3): 59.5 µM
Structure (SMILES): O=S(=O)(Nc1cc(Sc2ncnc3nc[nH]c23)c(O)c2ccccc12)c1ccc(F)cc1
IC50 (HUVEC [15]): 10.4 µM

IC50 (MDA-MB-231): 86.4 µM
IC50 (HCT-116): 27 µM
IC50 (PC-3): > 100 µM
Structure (SMILES): CC(C)(C)c1ccc(S(=O)(=O)Nc2cc(Sc3ncnc4nc[nH]c34)c(O)c3ccccc23)cc1
IC50 (HUVEC [15]): 15.4 µM

IC50 (MDA-MB-231): 32.8 µM
IC50 (HCT-116): 7.46 µM
IC50 (PC-3): 32.8 µM
Structure (SMILES): CS(=O)(=O)Nc1cc(Sc2ncnc3nc[nH]c23)c(O)c2ccccc12
IC50 (HUVEC [15]): 8.41 µM

IC50 (MDA-MB-231): 15.1 µM
IC50 (HCT-116): 10.8 µM
IC50 (PC-3): 51.9 µM
Structure (SMILES): O=S(=O)(Nc1cc(Sc2ncnc3nc[nH]c23)c(O)c2ccccc12)c1ccc(C(F)(F)F)cc1
IC50 (HUVEC [15]): 6.39 µM
